According to ChEMBL document CHEMBL5335778, “Bench-to-bedside: Innovation of small molecule anti-SARS-CoV-2 drugs in China” (Eur J Med Chem, 2023):

system: SARS-CoV-2; assay: Antiviral activity against SARS-CoV-2 Omicron BA1 variant infected in human A549-ACE2 cells assessed as reduction in viral load measured upto 4 days by viral plaque assay; format: functional, organism-based; details: Severe acute respiratory syndrome coronavirus 2, A549-ACE2, 96 h

Work on `COc1ccc2cc1Oc1ccc(cc1)C[C@H]1c3c(cc4c(c3Oc3cc5c(cc3OC)CCN(C)[C@@H]5C2)OCO4)CCN1C` [CEPHARANTHINE] yielded an EC50 of 100 nM.

system: SARS-CoV-2; assay: Antiviral activity against SARS-CoV-2 Omicron BA1 variant infected human A549-ACE2 cells assessed as inhibition of viral replication; format: functional, organism-based; details: Severe acute respiratory syndrome coronavirus 2, Omicron BA1, A549-ACE2

Compound `Br.[2H]c1cc([C@]2(C#N)O[C@H](COC(=O)C(C)C)[C@@H](OC(=O)C(C)C)[C@H]2OC(=O)C(C)C)n2ncnc(N)c12` [DEUREMIDEVIR HYDROBROMIDE] has an EC50 of 300 nM.

system: SARS-CoV-2; assay: Antiviral activity against SARS-CoV-2 variant Omicron BA.2 infected in African green monkey Vero E6 cells assessed as reduction in virus-induced cytopathic effect; format: functional, organism-based; details: Severe acute respiratory syndrome coronavirus 2, Omicron BA.2, Vero C1008

`CSc1ccc2c(c1)NC(=O)C(F)(F)C2=O` and `CC(C)C[C@H](NC(=O)c1cc2c(F)cccc2[nH]1)C(=O)NN(C[C@@H]1CCNC1=O)C(=O)[C@@H](F)Cl` are the same in EC50: 17.1 nM for the first, 17.1 nM for the second.

`C[C@H](NC(=O)[C@@H](c1cccnc1)N(C(=O)C(Cl)Cl)c1ccc(-c2ccccc2)cc1)c1ccccc1` and `C[C@H](NC(=O)[C@@H](c1cccnc1)N(C(=O)c1ccco1)c1ccc(-c2ccccc2)cc1)c1ccccc1` are the same in EC50: 21.7 nM for the first, 21.7 nM for the second.

`COc1cccc2[nH]c(C(=O)N[C@@H](CC(C)C)C(=O)N[C@@H](C[C@@H]3CCNC3=O)C(=O)CO)cc12` [PF-00835231] and `COc1cccc2[nH]c(C(=O)N[C@@H](CC(C)C)C(=O)N[C@@H](C[C@@H]3CCCNC3=O)C(=O)COC(=O)c3c(C(F)(F)F)cccc3C(F)(F)F)cc12` are the same in EC50: 21.7 nM for the first, 21.7 nM for the second.

`CC(C)C[C@H](NC(=O)OCC1C[C@H]2CCC[C@@H](C1)C2)C(=O)N[C@H](C=O)C[C@@H]1CCNC1=O` (some centres undefined) and `C[C@H](OC(C)(C)C)[C@H](NC(=O)OCc1ccccc1)C(=O)N[C@@H](CC1CCCCC1)C(=O)N[C@H](C=O)C[C@@H]1CCNC1=O` are the same in EC50: 21.7 nM for the first, 21.7 nM for the second.

`CC(C)(C)OC(=O)Nc1cccn([C@@H](CC2CC2)C(=O)N[C@@H](C[C@@H]2CCNC2=O)C(=O)C(=O)NCc2ccccc2)c1=O` and `CC(C)C[C@H](NC(=O)OCc1ccccc1)C(=O)N[C@@H](C[C@@H]1CCNC1=O)C(O)S(=O)(=O)O` (some centres undefined) are within 1.5-fold of each other in EC50: 17.1 nM for the first, 21.7 nM for the second.

`O=C1N(c2cncc3ccccc23)CNC12CC(c1ccccc1Cl)C2` (centres undefined) and `N#Cc1ccccc1-c1cc(-c2cc(Cl)cc(OCC3CC3)c2)c(=O)n(-c2cccnc2)c1` are the same in EC50: 17.1 nM for the first, 17.1 nM for the second.
